Among the test systems are K-562 leukemia; HS 578T breast; UACC-257 melanoma; LOX IMVI melanoma; SK-MEL-5 melanoma; RXF 393 renal; TK-10 renal; OVCAR-4 ovarian; SK-MEL-28 melanoma; NCI/ADR-RES ovarian.
Holding throughout (experiment): NCI anticancer screen, dose series, 48 h

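Growth conditions: 96-well plates. Treatment: test compound, 48 hours, 5 concentrations. Analysis: linear interpolation between bracketing concentrations; unreached endpoints set to highest concentration. The concentration for full growth arrest is given as TGI.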

`CC(C)=CC(=O)O[C@@H]1CC(C)(C)CC2C3=CCC4[C@]56CC[C@](O)(OC5)C(C)(C)C6CC[C@@]4(C)C3(C)CC[C@]21C(=O)O` (stereo not given in full): the TGI is greater than 100 µM in the test with K-562 leukemia; greater than 100 µM in the test on HS 578T breast; greater than 100 µM in the test with UACC-257 melanoma; 44.4 µM in the test with LOX IMVI melanoma; greater than 100 µM in the test with SK-MEL-5 melanoma; greater than 100 µM in the test on RXF 393 renal. Besides, the TGI with TK-10 renal, in the test with OVCAR-4 ovarian, in the test with SK-MEL-28 melanoma and in the test on NCI/ADR-RES ovarian was greater than 100 µM in each case.

Regarding `[N-]=[N+]=NC1(c2ccccc2)C(=O)Nc2ccccc2C1=O` (stereo not given), the TGI in the test with K-562 leukemia is greater than 100 µM; in the test on HS 578T breast it was 76.9 µM; in the test on UACC-257 melanoma it was greater than 100 µM; in the test on LOX IMVI melanoma it was greater than 100 µM; in the test on SK-MEL-5 melanoma it was 33.1 µM; in the test on RXF 393 renal, 75.9 µM. Moreover, the TGI with TK-10 renal, in the test with OVCAR-4 ovarian, in the test on SK-MEL-28 melanoma and in the test with NCI/ADR-RES ovarian was greater than 100 µM throughout.

`O=C1/C(=C/c2cccc(Oc3ccccc3)c2)N=C(c2ccccc2)N1c1nc2ccc(Sc3ccccc3)cc2[nH]1`: the TGI is greater than 100 µM with K-562 leukemia; greater than 100 µM in the test with HS 578T breast; 85.6 µM in the test on UACC-257 melanoma; greater than 100 µM in the test with LOX IMVI melanoma; 75.3 µM in the test on SK-MEL-5 melanoma; greater than 100 µM in the test on RXF 393 renal. The TGI in the test on TK-10 renal was 68.4 µM; in the test on OVCAR-4 ovarian, greater than 100 µM; in the test with SK-MEL-28 melanoma, greater than 100 µM; with NCI/ADR-RES ovarian, 50.4 µM.

In the case of `O=[N+]([O-])c1ccc2nc3ccc([N+](=O)[O-])cn3c2c1`, the TGI with K-562 leukemia, in the test on HS 578T breast, with UACC-257 melanoma, in the test with LOX IMVI melanoma, with SK-MEL-5 melanoma and in the test with RXF 393 renal was greater than 100 µM throughout. Also, the TGI in the test on TK-10 renal, in the test with OVCAR-4 ovarian, in the test with SK-MEL-28 melanoma and with NCI/ADR-RES ovarian was greater than 100 µM in each case.

Take `COc1ccc(/C=N/Nc2[nH]c(=S)nc3[nH]ncc23)cc1`: the TGI in the test with K-562 leukemia, with HS 578T breast, in the test on UACC-257 melanoma, in the test on LOX IMVI melanoma, with SK-MEL-5 melanoma and in the test on RXF 393 renal was greater than 100 µM throughout. In addition, the TGI in the test with TK-10 renal was 65.9 µM; with OVCAR-4 ovarian, greater than 100 µM; in the test on SK-MEL-28 melanoma, greater than 100 µM; in the test with NCI/ADR-RES ovarian it was greater than 100 µM.

In the case of `CC1CN=C(c2cccc(OCc3ccc(COc4cccc(C5=NCC(C)N5)c4)cc3)c2)N1` (stereo not given), the TGI in the test on K-562 leukemia is greater than 100 µM; with HS 578T breast it was greater than 100 µM; in the test on UACC-257 melanoma, 44.8 µM; in the test on LOX IMVI melanoma it was 62.1 µM; in the test with SK-MEL-5 melanoma, greater than 100 µM; in the test on RXF 393 renal, greater than 100 µM. Also, the TGI in the test on TK-10 renal, with OVCAR-4 ovarian, in the test on SK-MEL-28 melanoma and in the test on NCI/ADR-RES ovarian was greater than 100 µM each time.

Regarding `O=C1c2ccccc2S(=O)(=O)c2ccccc21`, the TGI in the test on K-562 leukemia, with HS 578T breast, in the test with UACC-257 melanoma, in the test with LOX IMVI melanoma, in the test on SK-MEL-5 melanoma and in the test on RXF 393 renal was greater than 100 µM each time. For the same molecule, the TGI in the test on TK-10 renal, in the test on OVCAR-4 ovarian, with SK-MEL-28 melanoma and in the test on NCI/ADR-RES ovarian was greater than 100 µM each time.

For `CCCCn1cc(C(=O)O)c(=O)c2c3sccc3ccc21`, the TGI with K-562 leukemia, in the test on HS 578T breast, in the test with UACC-257 melanoma, in the test with LOX IMVI melanoma, with SK-MEL-5 melanoma and with RXF 393 renal was greater than 100 µM in each case. Moreover, the TGI in the test on TK-10 renal was greater than 100 µM; in the test on OVCAR-4 ovarian, greater than 100 µM; in the test with SK-MEL-28 melanoma, greater than 100 µM; in the test on NCI/ADR-RES ovarian, 43.4 µM.

For the origin of these results see PubChem BioAssay (NCI).
